From patent publication US7544497B2, “Compositions for manipulating the lifespan and stress response of cells and organisms” (President and Fellows of Harvard College, priority 2003, dated 2009) come the findings set out here.

A short description of series [1]: D. melanogaster body mass. The conditions noted are these: 10 μM, 15% SY diet. The class given is in vivo. As for the experimental part:
Feeding rate was measured in yw females with the crop-filling assay^27. […] The presence of dye-marked food in the crop was scored in sets of 20 females across five 5-minute intervals. […] Males and females were weighed daily.

Another series has as its system rDNA silencing. Description: Ribosomal DNA silencing assay (URA3 reporter). It counts as cell-based, S. cerevisiae. As for the experimental part: Ribosomal DNA silencing assays using the URA3 reporters were performed as previously described^26. Ribosomal DNA recombination frequencies were determined by plating W303AR cells^37 on YPD medium with low adenine/histidine and counting the fraction of half-red sectored colonies using Bio-Rad Quantity One software as previously described^35. At least 6000 cells were analyzed per experiment and all experiments were performed in triplicate. All strains were pre-grown for 15 hours with the relevant compound prior to plating.

As for `Oc1ccc(/C=C/c2cc(O)cc(O)c2)cc1` [Resveratrol, 3,5,4′-Trihydroxy-trans-stilbene], the body weight entry in series [1] was “normal weight”. Besides, the “effect on rDNA silencing” value with rDNA silencing is recorded as “only minor effects”.
